In US20230357261A1, “ARYL HYDROCARBON RECEPTOR LIGANDS AND THEIR ANALOGUES FOR THE PREVENTION AND TREATMENT OF INFLAMMATORY DISORDERS” (The Johns Hopkins University, priority 2020, published 2023):

Assays:
AHR [1] = assay: AHR activation in mouse intestine in vivo (Cyp1a1 expression by qRT-PCR); conditions: for Cyp1a1 expression in the intestinal epithelium: fed I3C 25 mg/kg/day or A18 300 mg/kg/day
Procedure: Hits were validated for activation of AHR signaling by oral gavage into neonatal C57/B16 mice (p11), and measuring the expression of the AHR activation reporter Cyp1a1 by qRT-PCR in the intestinal mucosa 24 hours later. The lead compound from these studies is herein labelled “A18”. Additionally, the mice were subjected to hypoxia (5% 02-95% N2) for 10 min in a hypoxia chamber (Billups-Rothenberg) twice daily for 4 days. […] To test the protective effect of breast milk on AHR signaling a NEC, human breast milk (Innovative Research) was supplemented to the formula at the final concentration of 5%. Endotoxemia was induced in neonatal mouse pups (p11) by administering 5 mg/kg lipopolysaccharides (LPS) via intraperitoneal injection, and ileal samples were harvested 6 hours after LPS treatments. […] I3C and A18 were administered to the pregnant mother daily until the offspring were studied further for experimental NEC or endotoxemia as above. […] The mRNA quantification was performed on the Bio-Rad CFX96 Real-Time System (Bio-Rad) using iTaqTM universal SYBR® Green supermix (Bio-Rad) and the primers listed in Table 1. The relative mRNA expression levels were normalized against the expression of the housekeeping gene ribosomal protein lateral stalk subunit P0 (Rplp0). For microRNA isolation, freshly harvested, snap-frozen ileal tissue was subjected to total RNA isolation using the RNeasy plus universal mini kit (Qiagen) and miRNA was quantified using miScript PCR starter kit (Qiagen) following the manufacturer's protocols. The relative miRNA expression levels were normalized against the expression of housekeeping miRNA miR-191.

mouse NEC model = assay: Experimental NEC in newborn mice (Example 1); assay type: in vivo
TLR4 [2] = assay: TLR4 signaling and Tlr4 expression in newborn mouse ileum in vivo (endotoxemia model, LPS)
Procedure: Endotoxemia was induced in neonatal mouse pups (p11) by administering 5 mg/kg lipopolysaccharides (LPS) via intraperitoneal injection, and ileal samples were harvested 6 hours after LPS treatments. […] I3C and A18 were administered to the pregnant mother daily until the offspring were studied further for experimental NEC or endotoxemia as above. […] The mRNA quantification was performed on the Bio-Rad CFX96 Real-Time System (Bio-Rad) using iTaqTM universal SYBR® Green supermix (Bio-Rad) and the primers listed in Table 1. The relative mRNA expression levels were normalized against the expression of the housekeeping gene ribosomal protein lateral stalk subunit P0 (Rplp0). For microRNA isolation, freshly harvested, snap-frozen ileal tissue was subjected to total RNA isolation using the RNeasy plus universal mini kit (Qiagen) and miRNA was quantified using miScript PCR starter kit (Qiagen) following the manufacturer's protocols. The relative miRNA expression levels were normalized against the expression of housekeeping miRNA miR-191.

AHR [3] = assay: AHR activation in human ileal explant culture (Cyp1a1 qRT-PCR); assay type: cell-based; conditions: 200 μM I3C or 20 μM A18, 15 minutes pre-treatment then 6 hours
Excerpt: De-identified human ileal samples were collected via waiver of consent from the Office of Human Subjects Research Review Boards at Johns Hopkins University (IRB00094036), during surgery for NEC or at the time of stoma closure. For RNA isolation and qRT-PCR analysis, fresh samples were snapfrozen in liquid nitrogen immediately. For human explant culture, fresh ileum samples from NEC patients or patient undergoing stoma re-anastomosis were washed with sterile phosphate-buffered saline containing gentamycin (5 μg/mL), minced into 2- to 4-mm diameter pieces, and then cultured in Dulbecco's modified Eagle growth medium supplemented with 10% fetal bovine serum, 4 μg/mL human recombinant insulin and 100 μg/mL Primocin. […]
Total RNA was isolated using the RNeasy mini kit (Qiagen) and complementary DNA was synthesized from 0.5 μg RNA using QuantiTect Reverse Transcription kit (Qiagen) following the manufacturer's protocols. The mRNA quantification was performed on the Bio-Rad CFX96 Real-Time System (Bio-Rad) using iTaq™ universal SYBR® Green supermix (Bio-Rad) and the primers listed in Table 1. […] For microRNA isolation, freshly harvested, snap-frozen ileal tissue was subjected to total RNA isolation using the RNeasy plus universal mini kit (Qiagen) and miRNA was quantified using miScript PCR starter kit (Qiagen) following the manufacturer's protocols. […]

TLR4 [4] = assay: TLR4 signaling and expression in human ileal explant culture (LPS); assay type: cell-based
Excerpt: De-identified human ileal samples were collected via waiver of consent from the Office of Human Subjects Research Review Boards at Johns Hopkins University (IRB00094036), during surgery for NEC or at the time of stoma closure. For RNA isolation and qRT-PCR analysis, fresh samples were snapfrozen in liquid nitrogen immediately. For human explant culture, fresh ileum samples from NEC patients or patient undergoing stoma re-anastomosis were washed with sterile phosphate-buffered saline containing gentamycin (5 μg/mL), minced into 2- to 4-mm diameter pieces, and then cultured in Dulbecco's modified Eagle growth medium supplemented with 10% fetal bovine serum, 4 μg/mL human recombinant insulin and 100 μg/mL Primocin. Human ilea explant cultures were then pre-treated with 200 μM I3C or 20 μM A18 for 15 minutes, and then with 50 μg/mL LPS for 6 hours, then processed for total RNA isolation followed by qRT-PCR.
(§1) Total RNA was isolated using the RNeasy mini kit (Qiagen) and complementary DNA was synthesized from 0.5 μg RNA using QuantiTect Reverse Transcription kit (Qiagen) following the manufacturer's protocols. The mRNA quantification was performed on the Bio-Rad CFX96 Real-Time System (Bio-Rad) using iTaq™ universal SYBR® Green supermix (Bio-Rad) and the primers listed in Table 1. The relative mRNA expression levels were normalized against the expression of the housekeeping gene ribosomal protein lateral stalk subunit P0 (Rplp0). For microRNA isolation, freshly harvested, snap-frozen ileal tissue was subjected to total RNA isolation using the RNeasy plus universal mini kit (Qiagen) and miRNA was quantified using miScript PCR starter kit (Qiagen) following the manufacturer's protocols. The relative miRNA expression levels were normalized against the expression of housekeeping miRNA miR-191.

AHR [5] = assay: AHR activation in IEC-6 enterocytes (Cyp1a1 expression); assay type: cell-based, rat; conditions: A18, 6 hours
Procedure: The intestinal epithelial cells line IEC-6 (ATCC CRL-1592) was stably transduced with lentiviral particles containing Cignal Lenti XRE Reporter (luc) (Qiagen). Cells were treated serially with individual chemicals contained within the Johns Hopkins Drug Library (JHDL), which contains a series of FDA-approved drugs, Chong et al., 2006, (kindly provided by Dr. Jun O. Liu, Johns Hopkins University) at 10 μM for 24 hours, and the luciferase activity was quantified using the SpectraMax M3 (Molecular Devices).
as §1

[6] = cited from earlier work
[7] = A18 administered during pregnancy
[8] = wild-type newborn mice, A18 300 mg/kg body weight/day for 4 days, oral

SMILES: Cc1c(OCC(F)(F)F)ccnc1C[S+]([O-])c1nc2ccccc2[nH]1 (centres unmarked) [A18, Lansoprazole]
- Cyp1a1 expression in the offspring pup intestine (AHR [1]; A18 administered during pregnancy, 300 mg/kg body weight/day): induced the expression of Cyp1a1
- Cyp1a1 expression in the intestinal epithelium (AHR [1]; Ahr^−/− newborn mice): not
- Cyp1a1 expression in the intestinal epithelium (AHR [1]; wild-type newborn (p11) mice): induced the expression of Cyp1a1
- Tlr4 expression in the neonatal gut (NEC) (mouse NEC model; [7]): reduced
- Tnf-a expression in the neonatal gut (NEC) (mouse NEC model; [7]): reduced Tnf-a
- histology and NEC severity (mouse NEC model; [7]): improved histology and NEC severity
- NEC severity in the offspring (mouse NEC model; A18 administered during pregnancy (M-A18, 300 mg/kg body weight/day)): significantly reduced NEC severity
- prevention and treatment of NEC in mouse models (mouse NEC model; summary statement): effectively prevented and treated NEC
- NEC severity (mouse NEC model; wild-type mice, oral to pups during NEC induction: I3C 25 mg/kg/day, A18 300 mg/kg/day, or human breast milk 5% in formula): significantly reduced NEC severity
- NEC severity score (mouse NEC model; [8]): improved NEC severity score
- expression of I16 (NEC) (mouse NEC model; [8]): reduced expression of I16
- histology of the terminal ileum (NEC) (mouse NEC model; [8]): improved histology
- Tlr4 expression in the intestinal mucosa / newborn ileum (TLR4 [2]; wild-type mice, fed I3C or A18): reduced Tlr4 expression
- TLR4 (LPS)-induced 116 expression in the intestine (TLR4 [2]; wild-type newborn mice, fed A18 (300 mg/kg/day) or oral breast milk): significantly reduced TLR4-induced 116 expression
- Cyp1a1 expression in human intestinal explant cultures (AHR [3]): significantly induced Cyp1a1 expression
- Tlr4 expression in human intestine ex vivo (TLR4 [4]; 20 μM A18, LPS 50 μg/mL for 6 hours): significantly reduced
- LPS-induced Tnf-a expression in human intestinal explant cultures (TLR4 [4]; 200 μM I3C or 20 μM A18, LPS 50 μg/mL for 6 hours): significantly reduced LPS-induced Tnf-a expression
- inflammation in the intestine of human resected at the time of surgery for NEC (TLR4 [4]; summary statement): dampened inflammation
- Cyp1a1 expression in IEC-6 enterocytes (AHR [5]): induced the expression of Cyp1a1
- bound in human plasma ([6]; human plasma): approximately 97%
- plasma elimination half-life ([6]; in humans): approximately 2 h
- absorption ([6]; in vivo): rapidly absorbed
- metabolism by CYP3A4 and CYP2C18 ([6]; in vivo): extensively metabolized
